Patent US20230000773A1, “NOVEL HEADGROUP LIPID COMPOUNDS AND COMPOSITIONS FOR INTRACELLULAR DELIVERY OF THERAPEUTIC AGENTS” (ModernaTX, Inc., priority 2019, published 2023)

Tests used:
[1] = Surface hydrophobicity by Generalized Polarization by Laurdan (GPL); format: physicochemical; details: normalized Generalized Polarization by Laurdan; higher N-GP = less polar surface
Procedure, shortened: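 LNPs contained ionizable lipid:DSPC:cholesterol:PEG lipid at 50:10:38:2 mol %. Laurdan was post-inserted into the particle surface, and its fluorescence spectrum gave normalized generalized polarization (N-GP); higher N-GP means a less polar surface.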

[2] = Size and polydispersity index of nanoparticles comprising compounds of the disclosure; format: physicochemical; details: compound:DSPC:cholesterol:PEG 2 50:10:38:2 mol %
Procedure, shortened: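 LNPs contained test lipid:DSPC:cholesterol:PEG 2 at 50:10:38:2 mol %. Size and polydispersity index were measured by dynamic light scattering.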

[3] = Encapsulation efficiency (% EE), ribostar; format: physicochemical; details: nanoparticles, compound:DSPC:cholesterol:PEG 2 50:10:38:2 mol %
Source text: The efficiency of encapsulation of a therapeutic and/or prophylactic describes the amount of therapeutic and/or prophylactic that is encapsulated or otherwise associated with a lipid nanoparticle (e.g., an empty LNP or a loaded LNP) after preparation, relative to the initial amount provided. The encapsulation efficiency is desirably high (e.g., close to 100%). The encapsulation efficiency may be measured, for example, by comparing the amount of therapeutic and/or prophylactic in a solution containing the lipid nanoparticle (e.g., an empty LNP or a loaded LNP) before and after breaking up the lipid nanoparticle (e.g., an empty LNP or a loaded LNP) with one or more organic solvents or detergents. Fluorescence may be used to measure the amount of free therapeutic and/or prophylactic (e.g., RNA) in a solution. For the lipid nanoparticles (e.g., empty LNPs or loaded LNPs) described herein, the encapsulation efficiency of a therapeutic and/or prophylactic may be at least 50%, for example 50%, 55%, 60%, 65%, 70%, 75%, 80%, 85%, 90%, 91%, 92%, 93%, 94%, 95%, 96%, 97%, 98%, 99%, or 100%. In some embodiments, the encapsulation efficiency may be at least 80%. In certain embodiments, the encapsulation efficiency may be at least 90%. In some embodiments, the encapsulation efficiency of the therapeutic and/or prophylactic agent is between 80% and 100%.
Nanoparticle compositions including a therapeutic and/or prophylactic can be optimized according to the selection of a compound according to Formula (I), (I-1), (A), (A-1), (A-1a), or (A-1b), the selection of additional lipids, the amount of each lipid in the lipid component, and the wt:wt ratio of the lipid component to the therapeutic and/or prophylactic. Nanoparticle compositions including DSPC as a phospholipid, cholesterol as a structural lipid, PEG 2 as a PEG lipid, and a compound according to Formula (I), (I-1), (A), (A-1), (A-1a), or (A-1b) were prepared. The ratios of the lipids were 50:10:38:2 mol % for the lipid according to Formula (I), (I-1), (A), (A-1), (A-1a), or (A-1b):DSPC:cholesterol:PEG 2. Tables 2a, 2b, and 3-5 summarize the characteristics of the formulations.
Table 4 summarizes the surface hydrophobicity of nanoparticles comprising compounds of the disclosure as determined by Generalized Polarization by Laurdan (GPL). Laurdan, a fluorescent aminonaphthalene ketone lipid, was post-inserted into the nanoparticle surface and the fluorescence spectrum of Laurdan was collected to determine the normalized Generalized Polarization (N-GP). Higher N-GP indicates a less polar surface.

[4] = Apparent LNP pKa by 2-(p-toluidino)-6-napthalene sulfonic acid (TNS) assay; format: physicochemical; details: pH at half of maximum fluorescence
mRNA = mRNA integrity in nanoparticles by RP-IP HPLC (UV 260 nm); format: physicochemical
Method: Integrity of mRNA comprised in nanoparticles of the disclosure, i.e., the percentages of intact mRNA, mRNA adducts, and mRNA hydrolysis products, […] (Reverse-Phase Ion-Pairing HPLC) using UV detection at 260 nm. Total purity and impurities are calculated as percent peak area.

[5] = Heparin-sepharose binding of nanoparticles
[6] = Encapsulation efficiency (% EE), ribogreen; format: physicochemical; details: nanoparticles, compound:DSPC:cholesterol:PEG 2 50:10:38:2 mol %
Procedure, shortened: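 Encapsulated RNA fraction determined by fluorescence of free RNA before and after LNP disruption with detergent or solvent. LNPs contained ionizable lipid:DSPC:cholesterol:PEG lipid at 50:10:38:2 mol %.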

serum protein ApoE = assay: ApoE binding affinity of nanoparticles (bead binding, flow cytometry)
Method: The ApoE binding affinity, i.e., the affinity of binding between nanoparticles comprising compounds of the disclosure and the serum protein ApoE, was determined by binding the nanoparticles to beads, then incubating them with known quantities of […]. The quantity of protein bound to the nanoparticle was then determined by flow cytometry.

hEPO mRNA = assay: hEPO expression in CD1-mice after intravenous administration of nanoparticles; format: in vivo; details: 6 h after intravenous administration, mRNA dose 0.5 mg/kg, N:P 3.4, compound:DSPC:cholesterol:PEG 2 50:10:38:2
Method: The expression of hEPO mRNA in CD1-mice was measured 6 h after intravenous administration of nanoparticles comprising a compound of the disclosure, DSPC, cholesterol, and PEG 2 in a ratio of 50:10:38:2. […] Each composition was dosed to 8 animals at an mRNA dose of 0.5 mg/kg.

[7] = mRNA integrity after 2 weeks at 25° C., percent peak area
[8] = mRNA integrity at t = 0, percent peak area

Row | Average N-GP [1] | PDI [2] | Size (nm) [2] [nm] | % EE (ribostar) [3] [%] | LogIC50 (pKa) [4] | Adduct (mRNA; [7]) [%] | Hydrolysis Product (mRNA; [7]) [%] | Intact (mRNA; [7]) [%] | Adduct (mRNA; [8]) [%] | Hydrolysis Product (mRNA; [8]) [%] | Intact (mRNA; [8]) [%] | Relative % Area Bound by LNP [5] [%] | % EE (ribogreen) [6] [%] | Median Fluorescence Intensity, PE (serum protein ApoE) | SMILES | Avg. [hEPO] mIU/mL (hEPO mRNA) [mIU/mL]
1 | 0.874 | 0.109 | 64.7 | 50.7 | 6.54 | 20.2 | 35.9 | 43.9 | 8.7 | 30.8 | 60.6 | 0 | 90.8 | 147047 | CCCCCCCCC(CC)OC(=O)CCCCCCCN(CCCCCCCC(=O)OC(CCCCCCCC)CCCCCCCC)CCCNS(=O)(=O)Cc1ccon1 (stereo not drawn) [Compound 71, Heptadecan-9-yl 8-((3-((isoxazol-3-ylmethyl)sulfonamido)propyl)(8-oxo-8-(undecan-3-yloxy)octyl)amino)octanoate] | 1.50E+06
2 | 0.902 | 0.123 | 72.6 | 60.7 | 6.75 | 12.7 | 50.1 | 37.2 | 10.3 | 40.2 | 49.5 | 0 | 89.9 | 121247 | CCCCCCCCC(CC)OC(=O)CCCCCCCN(CCCCCCCC(=O)OC(CCCCCCCC)CCCCCCCC)CCCNS(=O)(=O)C[C@H]1COCCO1 (stereo partly drawn) [Compound 70, Heptadecan-9-yl 8-((3-((((R)-1,4-dioxan-2-yl)methyl)sulfonamido)propyl)(8-oxo-8-(undecan-3-yloxy)octyl)amino)octanoate] | 9.18E+05
3 | 1.055 | 0.192 | 90.8 | 20.5 | 6.69 | 8.5 | 77.2 | 14.3 | 6.0 | 51.8 | 42.2 | 5.65 | 41.5 | 41093 | CCCCCCCCC(CC)OC(=O)CCCCCCCN(CCCCCCCC(=O)OC(CCCCCCCC)CCCCCCCC)CCCNC(=O)C1(C)CC1 (stereo not drawn) [Compound 60, Heptadecan-9-yl 8-((3-(1-methylcyclopropane-1-carboxamido)propyl)(8-oxo-8-(undecan-3-yloxy)octyl)amino)octanoate] | 7.34E+05
